Measured values reported in ChEMBL document CHEMBL1140645, “Synthesis and in vitro activity of 2-thiazolylhydrazone derivatives compared with the activity of clotrimazole against clinical isolates of Candida spp” (Bioorg Med Chem Lett, 2007).
Converted amounts (≈) assume the structure as drawn.

Legend:
Candida parapsilosis = assay: Antifungal activity against Candida parapsilosis after 24 hrs by broth microdilution method; format: functional; conditions: Lodderomyces parapsilosis
[1] = Cytotoxicity against human EAhy926 cells assessed as cell survival fraction at 0.05 ug/ml after 24 hrs by trypan blue exclusion test; conditions: ea.hy 926, at 0.05 µg/mL
Nakaseomyces glabratus = assay: Antifungal activity against Candida glabrata after 24 hrs by broth microdilution method; format: functional
[2] = Cytotoxicity against human EAhy926 cells assessed as cell survival fraction at 50 ug/ml after 24 hrs by trypan blue exclusion test; conditions: ea.hy 926, at 50 µg/mL
Candida albicans = assay: Antifungal activity against Candida albicans after 24 hrs by broth microdilution method; format: functional
Pichia kudriavzevii = assay: Antifungal activity against Candida krusei after 24 hrs by broth microdilution method; format: functional
[Candida] sake = Antifungal activity against Candida sake after 24 hrs by broth microdilution method; format: functional; conditions: Fermentozyma sake
[3] = Cytotoxicity against human EAhy926 cells assessed as cell survival fraction at 0.5 ug/ml after 24 hrs by trypan blue exclusion test; conditions: ea.hy 926, at 0.5 µg/mL
Candida tropicalis = assay: Antifungal activity against Candida tropicalis after 24 hrs by broth microdilution method; format: functional
[4] = Cytotoxicity against human EAhy926 cells assessed as cell survival fraction at 5 ug/ml after 24 hrs by trypan blue exclusion test; conditions: ea.hy 926, at 5 µg/mL

Work on `c1ccc(-c2csc(NN=C3CCCCCC3)n2)cc1` yielded an MIC (Candida parapsilosis) of 8 µg/mL (≈ 28 µM), a viability at 24 h, 0.05 ug/ml [1] of 94.7% and an MIC (Nakaseomyces glabratus) of over 128 µg/mL. It also gave a viability at 24 h, 50 ug/ml [2] of 54.5%, an MIC (Candida albicans) of 0.5 µg/mL (≈ 1.75 µM) and an MIC (Pichia kudriavzevii) of 8 µg/mL (≈ 28 µM). It also gave an MIC ([Candida] sake) of 16 µg/mL (≈ 56.1 µM), a viability at 24 h, 0.5 ug/ml [3] of 87.5% and an MIC (Candida tropicalis) of 8 µg/mL (≈ 28 µM). The viability at 24 h, 5 ug/ml [4] was 80%.

`Clc1ccc(-c2csc(NN=C3CCCC3)n2)cc1` gave an MIC (Candida parapsilosis) of 8 µg/mL (≈ 27.4 µM), a viability at 24 h, 0.05 ug/ml [1] of 86% and an MIC (Nakaseomyces glabratus) of 0.5 µg/mL (≈ 1.71 µM). It also gave a viability at 24 h, 50 ug/ml [2] of 64.9%, an MIC (Candida albicans) of 0.25 µg/mL (≈ 0.857 µM) and an MIC (Pichia kudriavzevii) of 64 µg/mL (≈ 219 µM). It also gave an MIC ([Candida] sake) of 16 µg/mL (≈ 54.8 µM), a viability at 24 h, 0.5 ug/ml [3] of 89.2% and an MIC (Candida tropicalis) of 32 µg/mL (≈ 110 µM). For the same compound, the viability at 24 h, 5 ug/ml [4] was 81%.

With `O=[N+]([O-])c1ccc(-c2csc(NN=C3CCCC3)n2)cc1` the MIC (Candida parapsilosis) was over 128 µg/mL, the MIC (Nakaseomyces glabratus) was 0.5 µg/mL (≈ 1.65 µM) and the MIC (Candida albicans) was 8 µg/mL (≈ 26.5 µM). It also gave an MIC (Pichia kudriavzevii) of 32 µg/mL (≈ 106 µM), an MIC ([Candida] sake) of 16 µg/mL (≈ 52.9 µM) and an MIC (Candida tropicalis) of 64 µg/mL (≈ 212 µM).

Work on `COc1ccc(-c2csc(NN=C3CCCC3)n2)cc1` yielded an MIC (Candida parapsilosis) of 8 µg/mL (≈ 27.8 µM), a viability at 24 h, 0.05 ug/ml [1] of 85% and an MIC (Nakaseomyces glabratus) of 2 µg/mL (≈ 6.96 µM). The viability at 24 h, 50 ug/ml [2] was 66%, the MIC (Candida albicans) was 0.5 µg/mL (≈ 1.74 µM) and the MIC (Pichia kudriavzevii) was 32 µg/mL (≈ 111 µM). The MIC ([Candida] sake) was 32 µg/mL (≈ 111 µM), the viability at 24 h, 0.5 ug/ml [3] was 82.4% and the MIC (Candida tropicalis) was 64 µg/mL (≈ 223 µM). For the same compound, the viability at 24 h, 5 ug/ml [4] was 76.6%.

For `CC1CCCC/C1=N\Nc1nc(-c2cccc([N+](=O)[O-])c2)cs1` (stereo unspecified), the MIC (Candida parapsilosis) was 8 µg/mL (≈ 24.2 µM), the viability at 24 h, 0.05 ug/ml [1] was 88.8% and the MIC (Nakaseomyces glabratus) was 16 µg/mL (≈ 48.4 µM). For the same compound, the viability at 24 h, 50 ug/ml [2] was 83.3%, the MIC (Candida albicans) was 0.5 µg/mL (≈ 1.51 µM) and the MIC (Pichia kudriavzevii) was over 128 µg/mL. For the same compound, the MIC ([Candida] sake) was 16 µg/mL (≈ 48.4 µM), the viability at 24 h, 0.5 ug/ml [3] was 86% and the MIC (Candida tropicalis) was 64 µg/mL (≈ 194 µM). It also gave a viability at 24 h, 5 ug/ml [4] of 85.7%.

For `c1ccc(-c2ccc(-c3csc(NN=C4CCCC4)n3)cc2)cc1`, the MIC (Candida parapsilosis) was over 128 µg/mL, the MIC (Nakaseomyces glabratus) was over 128 µg/mL and the MIC (Candida albicans) was 16 µg/mL (≈ 48 µM). For the same compound, the MIC (Pichia kudriavzevii) was over 128 µg/mL, the MIC ([Candida] sake) was 32 µg/mL (≈ 96 µM) and the MIC (Candida tropicalis) was 64 µg/mL (≈ 192 µM).

In the case of `CC1CCCC/C1=N\Nc1nc(-c2ccc(-c3ccccc3)cc2)cs1` (stereo unspecified), the MIC (Candida parapsilosis) is reported as 16 µg/mL (≈ 44.3 µM), the MIC (Nakaseomyces glabratus) is reported as 64 µg/mL (≈ 177 µM) and the MIC (Candida albicans) is reported as 32 µg/mL (≈ 88.5 µM). It also gave an MIC (Pichia kudriavzevii) of 16 µg/mL (≈ 44.3 µM), an MIC ([Candida] sake) of 16 µg/mL (≈ 44.3 µM) and an MIC (Candida tropicalis) of 64 µg/mL (≈ 177 µM).

`Brc1ccc(-c2csc(NN=C3CCCC3)n2)cc1` showed an MIC (Candida parapsilosis) of 128 µg/mL (≈ 381 µM), an MIC (Nakaseomyces glabratus) of 2 µg/mL (≈ 5.95 µM) and an MIC (Candida albicans) of 2 µg/mL (≈ 5.95 µM). For the same compound, the MIC (Pichia kudriavzevii) was over 128 µg/mL, the MIC ([Candida] sake) was 32 µg/mL (≈ 95.2 µM) and the MIC (Candida tropicalis) was at least 128 µg/mL.

Work on `CC1CCC/C(=N\Nc2nc(-c3ccc(Cl)cc3)cs2)C1` (stereo unspecified) yielded an MIC (Candida parapsilosis) of 1 µg/mL (≈ 3.13 µM), a viability at 24 h, 0.05 ug/ml [1] of 73% and an MIC (Nakaseomyces glabratus) of over 128 µg/mL. It also gave a viability at 24 h, 50 ug/ml [2] of 28.6%, an MIC (Candida albicans) of 0.5 µg/mL (≈ 1.56 µM) and an MIC (Pichia kudriavzevii) of 4 µg/mL (≈ 12.5 µM). For the same compound, the MIC ([Candida] sake) was 2 µg/mL (≈ 6.25 µM), the viability at 24 h, 0.5 ug/ml [3] was 70% and the MIC (Candida tropicalis) was 2 µg/mL (≈ 6.25 µM). For the same compound, the viability at 24 h, 5 ug/ml [4] was 50%.

With `CC1CCC/C(=N\Nc2nc(-c3ccc(F)cc3)cs2)C1` (stereo unspecified) the MIC (Candida parapsilosis) was 1 µg/mL (≈ 3.3 µM), the viability at 24 h, 0.05 ug/ml [1] was 80% and the MIC (Nakaseomyces glabratus) was over 128 µg/mL. For the same compound, the viability at 24 h, 50 ug/ml [2] was 52.9%, the MIC (Candida albicans) was 0.5 µg/mL (≈ 1.65 µM) and the MIC (Pichia kudriavzevii) was 4 µg/mL (≈ 13.2 µM). For the same compound, the MIC ([Candida] sake) was 8 µg/mL (≈ 26.4 µM), the viability at 24 h, 0.5 ug/ml [3] was 76.9% and the MIC (Candida tropicalis) was 4 µg/mL (≈ 13.2 µM). It also gave a viability at 24 h, 5 ug/ml [4] of 60%.

Work on `Cc1ccc(-c2csc(NN=C3CCCC3)n2)cc1` yielded an MIC (Candida parapsilosis) of 128 µg/mL (≈ 472 µM), a viability at 24 h, 0.05 ug/ml [1] of 85.4% and an MIC (Nakaseomyces glabratus) of 0.5 µg/mL (≈ 1.84 µM). The viability at 24 h, 50 ug/ml [2] was 75%, the MIC (Candida albicans) was 0.25 µg/mL (≈ 0.921 µM) and the MIC (Pichia kudriavzevii) was 64 µg/mL (≈ 236 µM). It also gave an MIC ([Candida] sake) of 16 µg/mL (≈ 59 µM), a viability at 24 h, 0.5 ug/ml [3] of 82% and an MIC (Candida tropicalis) of 4 µg/mL (≈ 14.7 µM). For the same compound, the viability at 24 h, 5 ug/ml [4] was 80%.

Compound `N#Cc1ccc(-c2csc(NN=C3CCCC3)n2)cc1` has an MIC (Candida parapsilosis) of 128 µg/mL (≈ 453 µM), a viability at 24 h, 0.05 ug/ml [1] of 88.9% and an MIC (Nakaseomyces glabratus) of 0.5 µg/mL (≈ 1.77 µM). For the same compound, the viability at 24 h, 50 ug/ml [2] was 76%, the MIC (Candida albicans) was 2 µg/mL (≈ 7.08 µM) and the MIC (Pichia kudriavzevii) was 32 µg/mL (≈ 113 µM). For the same compound, the MIC ([Candida] sake) was 32 µg/mL (≈ 113 µM), the viability at 24 h, 0.5 ug/ml [3] was 84.7% and the MIC (Candida tropicalis) was 32 µg/mL (≈ 113 µM). It also gave a viability at 24 h, 5 ug/ml [4] of 81%.

`CC1CCCC/C1=N\Nc1nc(-c2ccc(Br)cc2)cs1` (stereo unspecified) gave an MIC (Candida parapsilosis) of 8 µg/mL (≈ 22 µM), an MIC (Nakaseomyces glabratus) of 2 µg/mL (≈ 5.49 µM) and an MIC (Candida albicans) of 4 µg/mL (≈ 11 µM). The MIC (Pichia kudriavzevii) was 64 µg/mL (≈ 176 µM), the MIC ([Candida] sake) was 16 µg/mL (≈ 43.9 µM) and the MIC (Candida tropicalis) was 32 µg/mL (≈ 87.8 µM).

For `O=[N+]([O-])c1cccc(-c2csc(NN=C3CCCC3)n2)c1`, the MIC (Candida parapsilosis) was over 128 µg/mL, the MIC (Nakaseomyces glabratus) was 0.5 µg/mL (≈ 1.65 µM) and the MIC (Candida albicans) was 1 µg/mL (≈ 3.31 µM). It also gave an MIC (Pichia kudriavzevii) of over 128 µg/mL, an MIC ([Candida] sake) of 16 µg/mL (≈ 52.9 µM) and an MIC (Candida tropicalis) of 64 µg/mL (≈ 212 µM).

Compound `COc1ccc(-c2csc(N/N=C3\CCCC(C)C3)n2)cc1` (stereo unspecified) has an MIC (Candida parapsilosis) of 1 µg/mL (≈ 3.17 µM), a viability at 24 h, 0.05 ug/ml [1] of 83.3% and an MIC (Nakaseomyces glabratus) of over 128 µg/mL. It also gave a viability at 24 h, 50 ug/ml [2] of 54.5%, an MIC (Candida albicans) of 0.5 µg/mL (≈ 1.59 µM) and an MIC (Pichia kudriavzevii) of 2 µg/mL (≈ 6.34 µM). For the same compound, the MIC ([Candida] sake) was 8 µg/mL (≈ 25.4 µM), the viability at 24 h, 0.5 ug/ml [3] was 80% and the MIC (Candida tropicalis) was 2 µg/mL (≈ 6.34 µM). For the same compound, the viability at 24 h, 5 ug/ml [4] was 72.7%.

For `Cc1ccc(-c2csc(N/N=C3\CCCC(C)C3)n2)cc1` (stereo unspecified), the MIC (Candida parapsilosis) was 0.5 µg/mL (≈ 1.67 µM), the viability at 24 h, 0.05 ug/ml [1] was 84% and the MIC (Nakaseomyces glabratus) was 32 µg/mL (≈ 107 µM). The viability at 24 h, 50 ug/ml [2] was 38.5%, the MIC (Candida albicans) was 0.5 µg/mL (≈ 1.67 µM) and the MIC (Pichia kudriavzevii) was 0.5 µg/mL (≈ 1.67 µM). The MIC ([Candida] sake) was 2 µg/mL (≈ 6.68 µM), the viability at 24 h, 0.5 ug/ml [3] was 83.3% and the MIC (Candida tropicalis) was 0.5 µg/mL (≈ 1.67 µM). For the same compound, the viability at 24 h, 5 ug/ml [4] was 72.7%.

With `CC1CCC/C(=N\Nc2nc(-c3ccc(C#N)cc3)cs2)C1` (stereo unspecified) the MIC (Candida parapsilosis) was 0.5 µg/mL (≈ 1.61 µM), the viability at 24 h, 0.05 ug/ml [1] was 68.8% and the MIC (Nakaseomyces glabratus) was over 128 µg/mL. For the same compound, the viability at 24 h, 50 ug/ml [2] was 25%, the MIC (Candida albicans) was 0.5 µg/mL (≈ 1.61 µM) and the MIC (Pichia kudriavzevii) was 4 µg/mL (≈ 12.9 µM). For the same compound, the MIC ([Candida] sake) was 4 µg/mL (≈ 12.9 µM), the viability at 24 h, 0.5 ug/ml [3] was 68.7% and the MIC (Candida tropicalis) was 2 µg/mL (≈ 6.44 µM). For the same compound, the viability at 24 h, 5 ug/ml [4] was 50%.
